The values that follow come from patent publication US20050085457A1, “Therapeutic quinolone compounds with 5-ht-antagonistic properties” (priority 2001, published 2005).

As a reminder, the melting point is the temperature, or range, at which the solid turns liquid.

One data set concerns Hartley guinea pigs. Briefly: learned helplessness test in guinea pigs. It is filed as in vivo. To be noted: guinea pig. The source says:
The utility of the compounds for example to treat depression may be shown via a learned helplessness test in guinea pigs, which is used extensively as correlative to antidepressant activity in humans. The learned helplessness test may be carried out as follows: Seventy male Hartley guinea pigs, each weighing about 350-425 gm are fed ad lib, and are housed under a 12-hour light/dark cycle. The procedure consists of two phases: The induction phase and the avoidance-training phase. In the induction phase, subjects are placed into standard shuttle cages (20 L×16 W×21 centimeters H) which are fitted with a grid floor. Electrical stimulation (1.25 mA, 10 sec duration) is delivered to the floor of the cage every 90-sec during 1 hour daily sessions. Subjects have no opportunity to escape or to avoid shocks. Induction is conducted for 2 consecutive days.
In avoidance training, testing is also conducted in the shuttle cages, except that the subjects are not returned to the same chamber in which induction had occurred. Additionally, all cages are fitted with a partition with an arch in the center of the cage, through which animals can pass between the left and right halves of the cage. The procedure employed is a standard shuttle avoidance procedure in which a compound, conditioned stimulus (a 10-sec presentation of a tone and turning on of a lamp on the side of the cage that the guinea pig was occupying) serves to indicate presentation of electrical current to the floor of the cage. Shock is presented for a 5 sec period, 5 sec after initiation of the conditioned stimulus. Entry into the opposite side of the shuttle cage via the arched partition prior to shock onset results in the end of the trial (avoidance response). If shock is delivered, entry into the opposite side of the cage results in termination of the shock and CS (escape). Reversal of learned helplessness in the induction subjects correlates to antidepressant activity of the test compound.
Avoidance training, 45-min in duration, is conducted on 2 consecutive days, beginning 48 hr after the final induction session. Seventy subjects are assigned to 1 of 6 groups of 11-12 animals. The groups are as follows: • 1) No induction group. The subjects are placed into the shuttle cages but are not given inescapable shock, the animals are subsequently trained in the avoidance procedure and the vehicle is administered; • 2) Induction vehicle control group; • 3) Imipramine 17.8 mg/kg; • 4) 0.3 mg/kg compounds; • 5) 1 mg/kg compounds; and • 6) 5 mg/kg compounds.
Groups 2-6 are given induction and avoidance training sessions. Injections are administered immediately following induction sessions and 1 hour prior to avoidance training sessions. […]

The target of data set [1] is 5-HT1B and 5HT1D receptors. To be noted: guinea pig cortex membranes; "may result in a measurement of"; assay of Roberts et al.; read-out: Kd of the radioligand (saturation studies); cited from earlier work.

In turn, `CN1CCN(c2cccc3c2OC(C(=O)Nc2ccc(N4CCOCC4)cc2)CC3)CC1` (racemic) [Example 75, racemic-8-(4-Methyl-piperazin-1-yl)-chroman-2-carboxylic Acid (4-morpholin-4-yl-phenyl)-amide] registered a melting point of 215 to 216 °C.
In turn, `CN1CCN(c2cccc3c2OC(C(=O)Nc2ccc(N4CCOCC4)cc2)CC3=O)CC1` (racemic) [Example 78, racemic-8-(4-methyl-piperazin-1-yl)-4-oxo-chroman-2-carboxylic Acid (4-morpholin-4-yl-phenyl)-amide] came in with a melting point of 215 to 216 °C.
Same read-out and setting: the result for `CN1CCN(c2cccc3c2OC(C(=O)Nc2ccc(N4CCOCC4)cc2)CC3=O)CC1` (single isomer, unassigned) [Example 79, 8-(4-Methyl-piperazin-1-yl)-4-oxo-chroman-2-carboxylic acid (4-morpholin-4-yl-phenyl)-amide (Faster Running Isomer)] reads 216 °C (dec.); that for `CN1CCN(c2cccc3c2OC(C(=O)Nc2ccc(N4CCOCC4)cc2)CC3=O)CC1` (single isomer, unassigned) [Example 80, 8-(4-Methyl-piperazin-1-yl)-4-oxo-chroman-2-carboxylic Acid (4-morpholin-4-yl-phenyl)-amide (Slower Running Isomer)], 215 °C (dec.).
On the same count and under the same terms, in the case of `CN1CCN(c2cccc3c2OC(C(=O)Nc2ccc(N4CCOCC4)cc2)CC3)CC1` (single isomer, unassigned; (+)) [Example 76, (+)-8-(4-Methyl-piperazin-1-yl)-chroman-2-carboxylic Acid (4-morpholin-4-yl-phenyl)-amide] it was 206 to 207 °C.
The same measure, in the same setting: in the case of `CN1CCN(c2cccc3c2OC(C(=O)Nc2ccc(N4CCOCC4)cc2)CC3)CC1` (single isomer, unassigned; (-)) [Example 77, (−)-8-(4-Methyl-piperazin-1-yl)-chroman-2-carboxylic acid (4-morpholin-4-yl-phenyl)-amide] it was 205.5 to 207 °C; in that of `CN1CCN(c2cccc3c(=O)cc(C(=O)Nc4ccc(N5CCOCC5)cc4)oc23)CC1` [Example 1, 8-(4-methyl-1-piperazinyl)-N-[4-(4-morpholinyl)phenyl]-4-oxo-4H-chromene-2-carboxamide], 217 to 218 °C (dec.); in that of `CN1CCN(c2cccc3c(=O)cc(-c4nc5ccc(N6CCOCC6)cc5o4)oc23)CC1` [Example 21, 8-(4-Methyl-piperazin-1-yl)-2-(6-morpholin-4-yl-benzooxazol-2-yl)-chromen-4-one], 158.1 to 158.8 °C.
In turn, `CN1CCN(c2cccc3c(=O)cc(C(=O)Nc4ccc(N5CCOCC5)cc4O)oc23)CC1` [Example 22, 8-(4-Methyl-piperazin-1-yl)-4-oxo-4H-chromene-2-carboxylic Acid (2-hydroxy-4-morpholin-4-yl-phenyl)-amide] showed a melting point of 248.4 to 249.6 °C.
On the same count and under the same terms, the result for `CN1CCN(c2cccc3c(=O)cc(C(=O)N(C)c4ccc(N5CCOCC5)cc4)oc23)CC1` [Example 25, 8-(4-Methylpiperazin-1-yl)-4-oxo-4H-chromene-2-carboxylic Acid methyl-(4-morpholin-4-yl-phenyl)amide] reads 245 to 246.8 °C.
In turn, `COc1cc(N2CCN(C)CC2)c2oc(C(=O)Nc3ccc(N4CCOCC4)cc3)cc(=O)c2c1` [Example 31, 6-Methoxy-8-(4-methyl-piperazin-1-yl)-4-oxo-4H-chromene-2-carboxylic acid (4-morpholin-4-yl-phenyl)-amide] returned a melting point of 234 to 236 °C. The “activity in the learned helplessness assay for antidepressant/antianxiety activity” value in the data set with Hartley guinea pigs is “demonstrate activity”.
Take `CCC(=O)N1CCN(c2ccc(NC(=O)c3cc(=O)c4cc(OC)cc(N5CCN(C)CC5)c4o3)cc2)CC1` [Example 44, 6-Methoxy-8-(4-methyl-piperazin-1-yl)-4-oxo-4H-chromene-2-carboxylic Acid [4-(4-propionyl-piperazin-1-yl)-phenyl]-amide]: the “activity in the learned helplessness assay for antidepressant/antianxiety activity” value in the data set with Hartley guinea pigs was “demonstrate activity”.
`COc1cc(N2CCN(C)CC2)c2oc(C(=O)Nc3ccc(N4CCN(C(=O)CCO)CC4)cc3)cc(=O)c2c1` [Example 68, 6-Methoxy-8-(4-methyl-piperazin-1-yl)-4-oxo-4H-chromene-2-carboxylic acid {4-[4-(3-hydroxy-propanoyl)-piperazin-1-yl]-phenyl}-amide]: the melting point was in the range of 195 to 197 °C.
On to `CCS(=O)(=O)N1CCN(c2ccc(NC(=O)c3cc(=O)c4cc(F)cc(N5CCN(C)CC5)c4o3)cc2)CC1` [Example 71, 6-Fluoro-8-(4-methyl-piperazin-1-yl)-4-oxo-4H-chromene-2-carboxylic Acid [4-(4-ethane sulfonyl-piperazin-1-yl)-phenyl]-amide], for which the melting point fell in the range of 233 to 234 °C. Moreover, the “activity in the learned helplessness assay for antidepressant/antianxiety activity” value with Hartley guinea pigs is given as “demonstrate activity”.
As for `CCC(=O)N1CCN(c2ccc(NC(=O)c3cc(=O)c4cc(F)cc(N5CCN(C)CC5)c4o3)cc2)CC1` [Example 72, 6-Fluoro-8-(4-methyl-piperazin-1-yl)-4-oxo-4H-chromene-2-carboxylic acid [4-(4-propionyl-piperazin-1-yl)-phenyl]-amide], the “activity in the learned helplessness assay for antidepressant/antianxiety activity” value in the data set with Hartley guinea pigs is “demonstrate activity”.
Molecule `CN1CCN(c2cc(F)cc3c(=O)cc(C(=O)Nc4ccc(N5CCN(C(=O)CCO)CC5)cc4)oc23)CC1` [Example 73, 6-Fluoro-8-(4-methyl-piperazin-1-yl)-4-oxo-4H-chromene-2-carboxylic acid {4-[4-(3-hydroxy-propanoyl)-piperazin-1-yl]-phenyl}-amide] showed a melting point of 195 to 199 °C.
On the same count and under the same terms, the result for `CCNC(=O)N1CCN(c2ccc(NC(=O)c3cc(=O)c4cc(F)cc(N5CCN(C)CC5)c4o3)cc2)CC1` [Example 81, 4-[4-({1-[6-Fluoro-8-(4-methyl-piperazin-1-yl)-4-oxo-4H-chromen-2-yl]-methanoyl}-amino)-phenyl]-piperazine-1-carboxylic Acid Ethylamide] reads 236 to 238 °C.
On to `COc1ccc(NC(=O)c2ccc(-c3ccncc3)c(C)c2)cc1N1CCN(C)CC1` [[^3H]-GR125743], for which, in data set [1], the Kd is 46 ± 4 pM.
